PMC6895203, “Conformational pathway provides unique sensitivity to a synaptic mGluR” (Nature Communications, 2019)
Values joined by “and” are separate entries in the source; they are usually repeats but may differ in a detail not shown here. Identical values can stand only once. “Also recorded” adds a separate entry of the source. Values belong to the compound of their own block, whether it stands above or below them.

Columns and labels:
[1] = molecular target: T1, CLIP-mGluR2/SNAP-mGluR7(K319C) heterodimer (Rattus norvegicus, UniProt P31421+P35400, K319C); experiment: smFRET on CLIP-mGluR2/SNAP-mGluR7(K319C) heterodimers with D-MAG-0 on mGluR7; assay type: biochemical; conditions: trans D-MAG-0 only on the mGluR7 subunit
T1 construct: Flag (N); HA (N); made in house; host or cells: HEK293T
Excerpt: (§1) Illumination was applied to the entire field of view using either a Polychrome V monochromator (TILL Photonics) through a 20× objective, or a Lambda DG4 high-speed wavelength switcher (Sutter Instruments) with 380 nm and 500 nm filters through a 40× objective. pClamp software was used for both data acquisition and control of illumination.
(§2) (100 ms time resolution).

[2] = molecular target: T2, SNAP-mGluR7(K319C) homodimer (Rattus norvegicus, UniProt P35400, K319C); experiment: smFRET on SNAP-mGluR7(K319C) homodimers conjugated to D-MAG-0; assay type: biochemical
T2 construct: HA (N); made in house; host or cells: HEK293T
Procedure: as §1, with “smFRET was performed on purified SNAP-mGluR7(K319C) homodimers that were labeled with donor and acceptor dyes on the SNAP and D-MAG-0 on K319C in the D-MAG-0 activated state. […] Illumination” for “Illumination”
as §2

[3] = molecular target: CLIP-mGluR2/SNAP-mGluR7 heterodimer (mGluR2/7) (Rattus norvegicus, UniProt P31421+P35400); experiment: smFRET on isolated CLIP-mGluR2/SNAP-mGluR7 heterodimers; conditions: for effect on smFRET distribution: 0 glutamate, combination of mGluR2 NAM (11 µM Ro 64-5229 or 1.2 µM MNI-137) with mGluR7 NAM ([…] ADX 71743)
SNAP-mGluR2(F756D) = molecular target: T3, SNAP-mGluR2(F756D) (Rattus norvegicus, UniProt P31421, F756D); experiment: Whole-cell patch clamp of GIRK1 current, SNAP-mGluR2(F756D) expressed alone; assay type: cell-based; conditions: BGAG12 labeled, 380 nm
T3 construct: HA (N); expressed in transfected cells; host or cells: HEK293 / HEK293T
Excerpt: (§3) We explored this further by examining trans-activation, whereby binding of ligand to one subunit activates G-protein interaction in the partner subunit[46],[47]. To specifically activate only the mGluR2 subunit of the mGluR2/7 heterodimer, we selectively attached a photoswitched tethered ligand to mGluR2.
as §1

[4] = molecular target: SNAP-mGluR2/SNAP-mGluR2 homodimer (mGluR2/2) (Rattus norvegicus, UniProt P31421); experiment: smFRET on isolated immune-purified SNAP-mGluR2/2 dimers; conditions: 10 nM DCG-IV
Excerpt: (§4) Receptors expressed in HEK293T cells were labeled with a mixture of SNAP-reactive donor and acceptor fluorophores, detergent solubilized, immune-purified and tethered by biotinylated secondary antibodies at low density to coverslips that were passivated with a lawn of polyethylene glycol[13]. We used single-molecule FRET (smFRET) in order to measure the absolute FRET levels and dynamic changes associated with ligand-induced conformational changes in the LBDs. We imaged the donor and acceptor dyes using total internal reflection fluorescence (TIRF) microscopy[13],[31]

[5] = molecular target: T4, SNAP-mGluR2(F756D)/mGluR7 heterodimer (Rattus norvegicus, UniProt P31421+P35400, F756D); experiment: Whole-cell patch clamp of GIRK1 current, trans-activation in SNAP-mGluR2(F756D)/mGluR7; assay type: cell-based
T4 construct: HA (N); expressed in transfected cells; host or cells: HEK293 / HEK293T
Excerpt: as §3, with “mGluR2. […] SNAP-mGluR2(F756D) was co-expressed with wild-type mGluR7 along with the GIRK1 channel.” for “mGluR2.”
as §1

[6] = molecular target: SNAP-mGluR7/SNAP-mGluR7 homodimer (mGluR7/7) (Rattus norvegicus, UniProt P35400); experiment: smFRET on isolated immune-purified SNAP-mGluR7/7 dimers
SNAP-mGluR7/SNAP-mGluR7 homodimer (mGluR7/7), sequence (P35400 35-915): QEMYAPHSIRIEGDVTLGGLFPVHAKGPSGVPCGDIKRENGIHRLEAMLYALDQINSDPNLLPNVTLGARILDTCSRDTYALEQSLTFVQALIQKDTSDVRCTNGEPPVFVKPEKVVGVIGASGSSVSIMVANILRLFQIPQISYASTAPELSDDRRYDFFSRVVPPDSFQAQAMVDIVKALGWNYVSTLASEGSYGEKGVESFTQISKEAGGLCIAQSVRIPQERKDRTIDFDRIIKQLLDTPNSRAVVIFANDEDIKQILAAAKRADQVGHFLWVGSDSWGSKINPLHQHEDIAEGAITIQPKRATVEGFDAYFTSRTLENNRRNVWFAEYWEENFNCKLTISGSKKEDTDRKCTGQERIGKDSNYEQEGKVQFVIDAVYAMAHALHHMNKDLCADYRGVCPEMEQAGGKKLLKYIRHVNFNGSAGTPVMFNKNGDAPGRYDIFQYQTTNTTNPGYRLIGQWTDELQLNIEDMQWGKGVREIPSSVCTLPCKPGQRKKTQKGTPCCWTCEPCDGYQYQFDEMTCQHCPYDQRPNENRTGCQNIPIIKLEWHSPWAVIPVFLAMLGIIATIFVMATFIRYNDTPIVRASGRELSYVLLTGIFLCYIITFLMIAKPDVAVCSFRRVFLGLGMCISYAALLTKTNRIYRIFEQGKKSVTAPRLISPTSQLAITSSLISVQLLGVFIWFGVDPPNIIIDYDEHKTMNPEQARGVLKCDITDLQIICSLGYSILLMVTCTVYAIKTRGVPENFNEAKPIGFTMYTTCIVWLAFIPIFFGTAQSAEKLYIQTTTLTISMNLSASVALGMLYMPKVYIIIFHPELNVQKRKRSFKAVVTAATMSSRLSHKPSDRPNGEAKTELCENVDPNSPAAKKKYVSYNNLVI
Excerpt: as §4

CLIP-mGluR2/SNAP-mGluR7 heterodimer (mGluR2/7), sequence (P31421 19-872): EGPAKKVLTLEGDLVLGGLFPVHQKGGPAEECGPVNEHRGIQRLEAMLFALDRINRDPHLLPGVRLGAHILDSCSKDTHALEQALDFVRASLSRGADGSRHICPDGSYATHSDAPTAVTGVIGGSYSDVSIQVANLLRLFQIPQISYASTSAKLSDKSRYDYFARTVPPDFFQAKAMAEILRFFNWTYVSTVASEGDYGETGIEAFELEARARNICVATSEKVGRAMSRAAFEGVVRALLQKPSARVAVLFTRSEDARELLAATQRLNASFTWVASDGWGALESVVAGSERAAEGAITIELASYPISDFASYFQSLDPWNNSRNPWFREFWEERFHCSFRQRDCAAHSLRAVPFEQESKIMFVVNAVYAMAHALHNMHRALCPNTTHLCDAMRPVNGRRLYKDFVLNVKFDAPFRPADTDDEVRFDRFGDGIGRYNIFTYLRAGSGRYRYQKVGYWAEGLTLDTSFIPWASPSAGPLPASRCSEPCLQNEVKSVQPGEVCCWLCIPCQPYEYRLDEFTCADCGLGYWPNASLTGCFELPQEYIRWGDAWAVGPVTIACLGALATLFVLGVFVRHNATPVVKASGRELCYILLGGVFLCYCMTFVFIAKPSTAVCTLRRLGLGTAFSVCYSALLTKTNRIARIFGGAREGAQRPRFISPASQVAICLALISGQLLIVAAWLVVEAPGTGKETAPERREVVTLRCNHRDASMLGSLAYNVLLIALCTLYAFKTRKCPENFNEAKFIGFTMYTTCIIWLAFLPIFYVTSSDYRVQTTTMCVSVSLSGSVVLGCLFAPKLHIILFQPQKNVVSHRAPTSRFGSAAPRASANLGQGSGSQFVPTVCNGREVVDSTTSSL
CLIP-mGluR2/SNAP-mGluR7 heterodimer (mGluR2/7), sequence (P35400 35-915): as the sequence (P35400 35-915) above
T4 sequence (P31421 19-872 F756D): as the sequence (P31421 19-872) above, with F738D counted along it
T4 sequence (P35400 35-915): as the sequence (P35400 35-915) above
T2 sequence (P35400 35-915 K319C): as the sequence (P35400 35-915) above, with K285C counted along it
T1 sequence (P31421 19-872): as the sequence (P31421 19-872) above
T1 sequence (P35400 35-915 K319C): as the sequence (P35400 35-915) above, with K285C counted along it
SNAP-mGluR2/SNAP-mGluR2 homodimer (mGluR2/2), sequence (P31421 19-872): as the sequence (P31421 19-872) above
T3 sequence (P31421 19-872 F756D): as the sequence (P31421 19-872) above, with F738D counted along it

Compound: NC(CC(CCC(=O)Nc1ccc(N=Nc2ccc(NC(=O)CN3C(=O)C=CC3=O)cc2)cc1)C(=O)O)C(=O)O (mixture of isomers) [D-MAG-0, maleimide-azobenzene-glutamate]
time in the activated low-FRET state [1]: ~ 90%
stabilization of activated conformation, fold more effective than saturating free glutamate ([2]; trans D-MAG-0): approximately 5 fold
occupancy of the activated low FRET state ([2]; trans D-MAG-0 on both subunits): ~ 50%

Compound: CCc1nc2c(o1)CC(c1ccc(C)cc1C)CC2=O (centres unmarked) [ADX71743]
effect on smFRET distribution [3]: narrowed the smFRET distribution and shifted it to the right

Compound: Nc1nc(OCc2ccc(CNC(=O)CCc3cn(CCOCCOCCOCCOCCOCCOCCOCCOCCOCCOCCOCCOCCC(=O)NCC(=O)Nc4ccc(/N=N/c5ccc(NC(=O)CCC[C@@H](C[C@H](N)C(=O)O)C(=O)O)cc5)cc4)nn3)cc2)c2nc[nH]c2n1 [BGAG12, benzylguanine azobenzene glutamate]
photocurrent (SNAP-mGluR2(F756D)): no photocurrent

occupancy of the activated conformation [4]: ~ 5%
activated conformation occupancy, fold greater than mGluR2/2 ([3]; 10 nM DCG-IV): ~ 5 fold
occupancy of the activated conformation ([3]; 10 nM DCG-IV): ~ 25%
Norm. (1 nM DCG-IV), Over 20% Photo ([5]; 1 nM DCG-IV, summary of cells Over 20% Photo): 0.04748
Norm. (1 nM DCG-IV), Under 15% Photo ([5]; 1 nM DCG-IV, summary of cells Under 15% Photo): 0.01667
Norm. (10 nM DCG-IV), Over 20% Photo ([5]; 10 nM DCG-IV, summary of cells Over 20% Photo): 0.2749
Norm. (10 nM DCG-IV), Under 15% Photo ([5]; 10 nM DCG-IV, summary of cells Under 15% Photo): 0.22
Norm. (100 nM DCG-IV), Over 20% Photo ([5]; 100 nM DCG-IV, summary of cells Over 20% Photo): 0.5816
Norm. (100 nM DCG-IV), Under 15% Photo ([5]; 100 nM DCG-IV, summary of cells Under 15% Photo): 0.3011
Norm. (1 uM DCG-IV) ([5]; 1 uM DCG-IV normalised to 1 mM Glu, single cells): 0.9403 and 0.9452 and 0.7554 and 0.9507
Norm. (1 uM DCG-IV), Over 20% Photo ([5]; 1 uM DCG-IV, summary of cells Over 20% Photo): 0.9454
Norm. (1 uM DCG-IV), Under 15% Photo ([5]; 1 uM DCG-IV, summary of cells Under 15% Photo): 0.7554
Norm. (10 uM DCG-IV) ([5]; 10 uM DCG-IV normalised to 1 mM Glu, single cells): 1
Current, 10 uM DCG-IV ([5]; 10 uM DCG-IV, single cells): -498.53
Norm. (10 uM DCG-IV), Over 20% Photo ([5]; 10 uM DCG-IV, summary of cells Over 20% Photo): 1
Compound: N[C@H](C(=O)O)C1[C@@H](C(=O)O)[C@@H]1C(=O)O (some centres unmarked) [DCG-IV]
DCG-IV GIRK concentration-response relation compared to mGluR2/2 ([5]; patch clamp, foot of the relation): left-shifted; also recorded: more sensitive

activation ([3]; 1 mM LSP4-2022): almost complete
apparent affinity of mGluR7 subunit, fold higher than when partnered with another mGluR7 ([3]; smFRET): approximately 1000 fold
normalized low FRET area (Supplemental Figure 2a), mGluR7 LSP4 ([6]; agonist 0.003 (M)): 1
normalized low FRET area (Supplemental Figure 2a), mGluR7 LSP4 ([6]; agonist 1.00E-03 (M)): 0.8692
normalized low FRET area (Supplemental Figure 2a), mGluR7 LSP4 ([6]; agonist 1.00E-06 (M)): 0.03798
normalized low FRET area (Supplemental Figure 2a), mGluR7 LSP4 ([6]; agonist 1.00E-07 (M)): 0.02088
normalized low FRET area (Supplemental Figure 2a), mGluR7 LSP4 ([6]; agonist 2.00E-05 (M)): 0.3163
receptor occupancy at 1000 µM ([6]; read-out: occupancy of the activated conformation): > 50%
receptor occupancy at 3000 µM ([6]; read-out: occupancy of the low FRET conformation): ~65%
efficacy, fold greater than that of glutamate ([6]; smFRET): at least 6 fold
Compound: N[C@@H](CCP(=O)(O)C(O)c1ccc(OCC(=O)O)cc1)C(=O)O (some centres unmarked) [LSP4-2022]
shift of smFRET distribution ([3]; 1 µM LSP4-2022): slightly more than half-way toward the activated low FRET state
smFRET traces ([6]; 20 μM LSP4-2022): frequent transitions to the low FRET activated conformation

Compound: Clc1cccc(Cl)c1/C(=C/n1cncn1)OC1CCCCCC1 [Ro 64-5229]
effect on smFRET distribution [3]: narrowed the smFRET distribution and shifted it to the right

Compound: MNI-137
effect on smFRET distribution [3]: narrowed the smFRET distribution and shifted it to the right
